Results published in patent US8895717B2, “Delivery of siRNA by neutral lipid compositions” (The Board of Regents of the University of Texas System, priority 2005, dated 2014).
d = 2'-deoxy (DNA); r = 2'-OH (RNA)

Experiments:
HeyA8 cells [1] = assay: Cytotoxicity assay (MTT), HeyA8; format: cell-based, human; conditions: HeyA8; siRNA 48 hours before docetaxel; at 50% cytotoxicity
Description: (§1) The medium was exchanged after 48 hours with increasing concentrations of docetaxel (obtained from Aventis Pharma, Bridgewater, N.J.) dissolved in ethanol (final concentration range, 0.1-10,000 nmol/L prepared in medium) or cisplatin (purchased from LKT Laboratories, Inc., St. Paul, Minn.) dissolved in water. After a 96-hour incubation, 50 μL of 0.15% 3-(4,5-dimethylthiazol-2-yl)-2,5-diphenyltetrazolium bromide was added to each well and incubated for 2 hours. The supernatant was removed, and cells were dissolved in 100 μL DMSO. The absorbance at 570 nm was recorded using a FALCON microplate reader (Becton Dickinson Labware, Bedford, Mass.), and cell survival expressed as a percent increase or decrease above control conditions, after subtracting blank A570 readings. The IC50 concentration was determined by finding the A570 reading midpoint between maximal and minimal readings and finding the chemotherapy concentration that intersects the growth curve at that A570 reading.

SKOV3-TR cells = assay: Cytotoxicity assay (MTT), SKOV3-TR; format: cell-based, human; conditions: SKOV3-TR; siRNA 48 hours before docetaxel
Description: as §1

[2] = test system: SKOV3-TR and HeyA8-MDR cells; assay: TUNEL apoptosis assay, taxane-resistant cells; format: cell-based, human; conditions: FAK siRNA with or without docetaxel
Description: Terminal deoxynucleotidyl transferase-mediated nick end labeling-positive cells were detected using Dead End Fluorometric terminal deoxynucleotidyl transferase-mediated nick end labeling system (APO-DIRECT, BD Biosciences/PharMingen, San Diego, Calif.) according to the manufacturer's instructions. Briefly, ovarian cancer cells in culture were treated with varying concentrations of docetaxel and harvested after 12, 24, 48, or 96 hours. Cells were fixed with 4% paraformaldehyde solution for 25 minutes on ice. Intracellular DNA fragments were then labeled by exposing cells to fluorescein-12-dUTP, treated with propidium iodide and RNaseA solution, and analyzed by flow cytometry (EPICS XL, Beckman Coulter, Miami, Fla.). The percentages of apoptotic cells were averaged over three consecutive experiments.

HeyA8 cells [3] = assay: Chronic restraint stress, HeyA8 orthotopic tumor growth; format: in vivo, nude mice; conditions: siRNA in DOPC three times per week
From the text: Mice habituated to vivarium conditions for 1 week before the initiation of stress procedures. A restraint-stress procedure was used based on previous studies (Sheridan et al., 1991), substituting a novel Mouse Restraint System (FIG. 15A) for conical centrifuge tubes. In this system, up to 10 mice are placed in individual slots, and each slot can be adjusted to restrain the animal for a desired length of time. In the present study, restraint stress began between 8 a.m. and 10 a.m., and lasted for 2-6 hours for up to 21 days. […] Immunohistochemistry and H&E staining procedures were carried out on formalin-fixed paraffin-embedded tumors. […] Pumps were inserted on the nape of the neck 7 days prior to initiation of restraint stress for 2 hours daily. Mice were anesthetized with inhaled methoxyflurane (Medical Developments Australia Pty. Ltd, Melbourne, Australia), and implanted with Alzet pumps containing PBS or S-propranolol hydrochloride (Sigma Co., St. Louis, Mo.) diluted in PBS at a dose of 2 mg/kg/day, which allows for chronic continuous receptor blockade, for 28 days (Aarons and Molinoff, 1982; Exton et al., 2002).

Row | Substance | fold greater docetaxel cytotoxicity after FAK down-regulation (HeyA8 cells [1]) [fold] | fold increase in sensitivity to docetaxel (SKOV3-TR cells) [fold] | apoptosis [2] | effect on stress induced increase in tumor weight, nodules and metastasis (HeyA8 cells [3])
1 | FAK siRNA: sense r(CCACCUGGGCCAGUAUUAU)d(TT), antisense r(AUAAUACUGGCCCAGGUGG)d(TT); for in vivo delivery incorporated into DOPC (sense CCACCUGGGCCAGUAUUAUTT; antisense AUAAUACUGGCCCAGGUGGTT; sugars from the 5' end r19 d2, backbone not given here) | 8 | 4.8 | neither agent alone induced much apoptosis | 
2 | control siRNA: sense r(UUUUCCGAACGUGUCACGU)dTT, antisense r(ACGUGACACGUUCGGAGAA)dTT, no homology with human mRNA; in vivo in DOPC (sense UUUUCCGAACGUGUCACGUTT; antisense ACGUGACACGUUCGGAGAATT; sugars from the 5' end r19 d2, backbone not given here) |  |  |  | failed to block stress-induced enhancement of tumor weight and nodules
